Measured values published in ChEMBL document CHEMBL3046948, “Synthesis and SAR investigation of natural phenylpropene-derived methoxylated cinnamaldehydes and their novel Schiff bases as potent antimicrobial and antioxidant agents” (2013).
In brackets after ≈: the same amount, converted by molar mass. Activity calls are given as the source filed them. The calls are words filed in the database; no cut-off is given here.

How the values were obtained:
Format in all cases: functional
[1] = system: Radical scavenging activity; experiment: Antioxidant activity assessed as inhibition of DPPH radical formation at 2 mg/ml after 30 min by spectrophotometric analysis
Aspergillus sydowii = experiment: Antimicrobial activity against Aspergillus sydowii MTCC 4335 assessed as growth inhibition after 5 days by broth microdilution method
Aspergillus parasiticus = experiment: Antimicrobial activity against Aspergillus parasiticus MTCC 2797 assessed as growth inhibition after 5 days by broth microdilution method
Aspergillus niger = experiment: Antimicrobial activity against Aspergillus niger MTCC 404 assessed as growth inhibition after 5 days by broth microdilution method
Pichia kudriavzevii = experiment: Antimicrobial activity against Pichia kudriavzevii MTCC 231 assessed as growth inhibition after 24 hr by broth microdilution method
Candida albicans = experiment: Antimicrobial activity against Candida albicans MTCC 3017 assessed as growth inhibition after 24 hr by broth microdilution method
Enterobacter cloacae = experiment: Antimicrobial activity against Enterobacter cloacae MTCC 509 assessed as growth inhibition after 24 hr by broth microdilution method
Pseudomonas aeruginosa = experiment: Antimicrobial activity against Pseudomonas aeruginosa MTCC 424 assessed as growth inhibition after 24 hr by broth microdilution method
Klebsiella pneumoniae = experiment: Antimicrobial activity against Klebsiella pneumoniae MTCC 109 assessed as growth inhibition after 24 hr by broth microdilution method
Escherichia coli = experiment: Antimicrobial activity against Escherichia coli MTCC 43 assessed as growth inhibition after 24 hr by broth microdilution method
Burkholderia cepacia = experiment: Antimicrobial activity against Burkholderia cepacia MTCC 438 assessed as growth inhibition after 24 hr by broth microdilution method
Micrococcus luteus = experiment: Antimicrobial activity against Micrococcus luteus MTCC 2470 assessed as growth inhibition after 24 hr by broth microdilution method
Bacillus subtilis = experiment: Antimicrobial activity against Bacillus subtilis MTCC 121 assessed as growth inhibition after 24 hr by broth microdilution method
Staphylococcus aureus = experiment: Antimicrobial activity against Staphylococcus aureus MTCC 3160 assessed as growth inhibition after 24 hr by broth microdilution method
Trichophyton rubrum = experiment: Antimicrobial activity against Trichophyton rubrum MTCC 296 assessed as growth inhibition after 5 days by broth microdilution method

Compound	inhibition [1] [%]	MIC (Aspergillus niger)	MIC (Pichia kudriavzevii; MTCC 231, 24 h) [µM]	MIC (Candida albicans; MTCC 3017, 24 h) [µM]	MIC (Enterobacter cloacae)	MIC (Pseudomonas aeruginosa)	MIC (Klebsiella pneumoniae)	MIC (Escherichia coli)	MIC (Trichophyton rubrum; MTCC 296, 120 h) [µM]	MIC (Aspergillus sydowii; MTCC 4335, 120 h) [µM]	MIC (Aspergillus parasiticus; MTCC 2797, 120 h) [µM]	MIC (Burkholderia cepacia; MTCC 438, 24 h) [µM]	MIC (Micrococcus luteus; MTCC 2470, 24 h) [µM]	MIC (Bacillus subtilis; MTCC 121, 24 h) [µM]	MIC (Staphylococcus aureus; MTCC 3160, 24 h) [µM]	other results
Cc1cc(C(C)(C)C)c(O)c(C(C)(C)C)c1	91.6	–	–	–	–	–	–	–	–	–	–	–	–	–	–	–
NC(=O)N/N=C/C=C/c1ccc2c(c1)OCO2	2.37	inactive	8570 (≈ 2000 µg/mL)	8570 (≈ 2000 µg/mL)	inactive	inactive	inactive	inactive	8570 (≈ 2000 µg/mL)	–	–	–	–	–	–	MIC (Aspergillus sydowii): inactive; MIC (Aspergillus parasiticus): inactive; MIC (Burkholderia cepacia): inactive; MIC (Micrococcus luteus): inactive; MIC (Bacillus subtilis): inactive; MIC (Staphylococcus aureus): inactive
CCOc1ccc2nc(/N=C/C=C/c3ccc4c(c3)OCO4)sc2c1	0.24	inactive	1420 (≈ 500 µg/mL)	1420 (≈ 500 µg/mL)	inactive	inactive	inactive	inactive	1420 (≈ 500 µg/mL)	710 (≈ 250 µg/mL)	710 (≈ 250 µg/mL)	1420 (≈ 500 µg/mL)	710 (≈ 250 µg/mL)	1420 (≈ 500 µg/mL)	710 (≈ 250 µg/mL)	–
CC(=O)c1ccc(/N=C/C=C/c2ccc3c(c2)OCO3)cc1	4.49	–	1700 (≈ 499 µg/mL)	1700 (≈ 499 µg/mL)	inactive	inactive	inactive	inactive	1700 (≈ 499 µg/mL)	850 (≈ 249 µg/mL)	1700 (≈ 499 µg/mL)	1700 (≈ 499 µg/mL)	850 (≈ 249 µg/mL)	850 (≈ 249 µg/mL)	850 (≈ 249 µg/mL)	MIC (Aspergillus niger; MTCC 404, 120 h): 1700 µM (≈ 499 µg/mL)
C(=C\c1ccc2c(c1)OCO2)/C=N/c1ccccc1	25.8	–	490 (≈ 123 µg/mL)	990 (≈ 249 µg/mL)	–	–	–	–	990 (≈ 249 µg/mL)	1990 (≈ 500 µg/mL)	1990 (≈ 500 µg/mL)	490 (≈ 123 µg/mL)	990 (≈ 249 µg/mL)	1990 (≈ 500 µg/mL)	1990 (≈ 500 µg/mL)	MIC (Aspergillus niger; MTCC 404, 120 h): 990 µM (≈ 249 µg/mL); MIC (Enterobacter cloacae; MTCC 509, 24 h): 990 µM (≈ 249 µg/mL); MIC (Pseudomonas aeruginosa; MTCC 424, 24 h): 250 µM (≈ 62.8 µg/mL); MIC (Klebsiella pneumoniae; MTCC 109, 24 h): 990 µM (≈ 249 µg/mL); MIC (Escherichia coli; MTCC 43, 24 h): 1990 µM (≈ 500 µg/mL)
COc1ccc(/N=C/C=C/c2ccc3c(c2)OCO3)cc1OC	15.4	inactive	–	–	inactive	inactive	inactive	inactive	–	3210 (≈ 999 µg/mL)	1600 (≈ 498 µg/mL)	–	–	–	–	MIC (Pichia kudriavzevii): inactive; MIC (Candida albicans): inactive; MIC (Burkholderia cepacia): inactive; MIC (Micrococcus luteus): inactive; MIC (Bacillus subtilis): inactive; MIC (Staphylococcus aureus): inactive; MIC (Trichophyton rubrum): inactive
Clc1ccc2nc(/N=C/C=C/c3ccc4c(c3)OCO4)sc2c1	80.7	inactive	730 (≈ 250 µg/mL)	730 (≈ 250 µg/mL)	inactive	inactive	inactive	inactive	730 (≈ 250 µg/mL)	–	–	730 (≈ 250 µg/mL)	730 (≈ 250 µg/mL)	730 (≈ 250 µg/mL)	730 (≈ 250 µg/mL)	MIC (Aspergillus sydowii): inactive; MIC (Aspergillus parasiticus): inactive
